# Assay results reported in patent US20070249590A1, “Substituted indolo[2,3-a]pyrrolo[3,4-c]carbazole compounds useful in treating kinase disorders” (priority 2005, published 2007).
# Biological target: T1, JAK3 (JH1 and JH2 domain) (Homo sapiens, UniProt P52333)
# T1 sequence (P52333 521-1111 limits assumed): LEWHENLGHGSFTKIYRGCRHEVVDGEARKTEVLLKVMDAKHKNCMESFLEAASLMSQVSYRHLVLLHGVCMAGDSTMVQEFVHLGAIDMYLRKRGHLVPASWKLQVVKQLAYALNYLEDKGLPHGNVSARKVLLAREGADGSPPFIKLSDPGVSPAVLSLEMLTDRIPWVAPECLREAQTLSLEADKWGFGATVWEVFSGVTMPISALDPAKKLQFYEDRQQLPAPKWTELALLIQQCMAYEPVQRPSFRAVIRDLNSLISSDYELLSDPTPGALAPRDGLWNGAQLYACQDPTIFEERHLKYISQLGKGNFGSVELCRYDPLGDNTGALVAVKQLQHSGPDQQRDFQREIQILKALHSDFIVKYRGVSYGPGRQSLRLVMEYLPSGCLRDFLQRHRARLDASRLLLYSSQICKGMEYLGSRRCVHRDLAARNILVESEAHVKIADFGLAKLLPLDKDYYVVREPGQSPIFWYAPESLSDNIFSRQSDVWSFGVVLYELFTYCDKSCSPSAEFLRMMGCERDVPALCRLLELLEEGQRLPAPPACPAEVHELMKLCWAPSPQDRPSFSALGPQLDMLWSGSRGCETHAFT
# Assay: JAK3 Kinase Assay (ELISA of peptide substrate phosphorylation)
# Format: biochemical
# Settings: purified JAK3 enzyme, 10 μM ATP, biotinylated peptide substrate, 1 hour at room temperature
# Method in brief: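 Sf21-baculovirus-expressed JAK3 (JH1+JH2), glutathione-bead purified, with biotinylated peptide substrate (in buffer containing 10 μM ATP) in HEPES pH 7.5/MgCl2/DTT, 1 h RT. Product was captured on Neutravidin, detected with HRP anti-phosphotyrosine (PY99)/TMB, OD 450/650 nm. Triplicate 16-point half-log series from 200 μM gave IC50; otherwise % inhibition at 1 μM.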
row,IC50 [nM],Structure (SMILES)
1,71,"COc1ccccc1N1CCN(C(=O)OC2CCn3c4ccccc4c4c5c(c6c7ccccc7n(c6c43)C2)C(=O)NC5=O)CC1 (centres unmarked) [Cpd 70, 12,13-(2-{[4-(2-methoxy-phenyl)piperazin-1-yl]carbonyloxy}-butan-1,4-yl)-12,13-dihydro-5,7-dioxo-6H-indolo[2,3-a]pyrrolo[3,4-c]carbazole]"
2,38,"O=C1NC(=O)c2c1c1c3ccccc3n3c1c1c2c2ccccc2n1CC(OC(=O)N1CCOCC1)CC3 (centres unmarked) [Cpd 71, 12,13-[2-(morpholin-4-yl-carbonyloxy)-butan-1,4-yl]-12,13-dihydro-5,7-dioxo-6H-indolo[2,3-a]pyrrolo[3,4-c]carbazole]"
3,12,"O=C(NC1CCNC1)OC1CCn2c3ccccc3c3c4c(c5c6ccccc6n(c5c32)C1)C(=O)NC4=O (centres unmarked) [Cpd 72, 12,13-[2-(pyrrolidin-3-yl-carbamoyloxy)-butan-1,4-yl]-12,13-dihydro-5,7-dioxo-6H-indolo[2,3-a]pyrrolo[3,4-c]carbazole]"
4,42,"CN(C)[C@H]1CCN(C(=O)OC2CCn3c4ccccc4c4c5c(c6c7ccccc7n(c6c43)C2)C(=O)NC5=O)C1 (stereo partly drawn) [Cpd 73, 12,13-(2-{[(3S)-3-dimethylamino-pyrrolidin-1-yl]carbonyloxy}-butan-1,4-yl)-12,13-dihydro-5,7-dioxo-6H-indolo[2,3-a]pyrrolo[3,4-c]carbazole]"
5,14,"CN(C)[C@@H]1CCN(C(=O)OC2CCn3c4ccccc4c4c5c(c6c7ccccc7n(c6c43)C2)C(=O)NC5=O)C1 (stereo partly drawn) [Cpd 74, 12,13-(2-{[(3R)-3-dimethylamino-pyrrolidin-1-yl]carbonyloxy}-butan-1,4-yl)-12,13-dihydro-5,7-dioxo-6H-indolo[2,3-a]pyrrolo[3,4-c]carbazole]"
6,35,"O=C(NC1CCNCC1)OC1CCn2c3ccccc3c3c4c(c5c6ccccc6n(c5c32)C1)C(=O)NC4=O (centres unmarked) [Cpd 75, 12,13-[2-(piperidin-4-yl-carbamoyloxy)-butan-1,4-yl]-12,13-dihydro-5,7-dioxo-6H-indolo[2,3-a]pyrrolo[3,4-c]carbazole]"
7,64,"CN1CCN(C(=O)OC2Cn3c4ccccc4c4c5c(c6c7ccccc7n(c6c43)CC2O)C(=O)NC5=O)CC1 (centres unmarked) [Cpd 76, 12,13-{2-[(4-methyl-piperazin-1-yl)carbonyloxy]-3-hydroxy-butan-1,4-yl}-12,13-dihydro-5,7-dioxo-6H-indolo[2,3-a]pyrrolo[3,4-c]carbazole]"
8,86,"CN(C)CCNC(=O)OC1Cn2c3ccccc3c3c4c(c5c6ccccc6n(c5c32)CC1O)C(=O)NC4=O (centres unmarked) [Cpd 77, 12,13-[2-[(2-dimethylamino-ethyl)carbamoyloxy]-3-hydroxy-butan-1,4-yl]-12,13-dihydro-5,7-dioxo-6H-indolo[2,3-a]pyrrolo[3,4-c]carbazole]"
9,179,"COc1ccccc1CNC(=O)OC1Cn2c3ccccc3c3c4c(c5c6ccccc6n(c5c32)CC1O)C(=O)NC4=O (centres unmarked) [Cpd 78, 12,13-{2-[(2-methoxy-benzyl)carbamoyloxy]-3-hydroxy-butan-1,4-yl}-12,13-dihydro-5,7-dioxo-6H-indolo[2,3-a]pyrrolo[3,4-c]carbazole]"
10,48,"O=C(NCCCN1CCCC1=O)OC1Cn2c3ccccc3c3c4c(c5c6ccccc6n(c5c32)CC1O)C(=O)NC4=O (centres unmarked) [Cpd 79, 12,13-(2-{[3-(2-oxo-pyrrolidin-1-yl)prop-1-yl]carbamoyloxy}-3-hydroxy-butan-1,4-yl)-12,13-dihydro-5,7-dioxo-6H-indolo[2,3-a]pyrrolo[3,4-c]carbazole]"
11,100,"O=C(NCc1ccc2c(c1)OCO2)OC1Cn2c3ccccc3c3c4c(c5c6ccccc6n(c5c32)CC1O)C(=O)NC4=O (centres unmarked) [Cpd 80, 12,13-{2-[(benzo[1,3]dioxol-5-yl-methyl)carbamoyloxy]-3-hydroxy-butan-1,4-yl}-12,13-dihydro-5,7-dioxo-6H-indolo[2,3-a]pyrrolo[3,4-c]carbazole]"
12,434,"O=C(NCC1CCCCC1)OC1Cn2c3ccccc3c3c4c(c5c6ccccc6n(c5c32)CC1O)C(=O)NC4=O (centres unmarked) [Cpd 81, 12,13-{2-[(cyclohexyl-methyl)carbamoyloxy]-3-hydroxy-butan-1,4-yl}-12,13-dihydro-5,7-dioxo-6H-indolo[2,3-a]pyrrolo[3,4-c]carbazole]"
13,134,"O=C(NCCc1ccccn1)OC1Cn2c3ccccc3c3c4c(c5c6ccccc6n(c5c32)CC1O)C(=O)NC4=O (centres unmarked) [Cpd 82, 12,13-{2-[(2-pyridin-2-yl-ethyl)carbamoyloxy]-3-hydroxy-butan-1,4-yl}-12,13-dihydro-5,7-dioxo-6H-indolo[2,3-a]pyrrolo[3,4-c]carbozole]"
14,29,"COCCNC(=O)OC1Cn2c3ccccc3c3c4c(c5c6ccccc6n(c5c32)CC1O)C(=O)NC4=O (centres unmarked) [Cpd 83, 12,13-{2-[(2-methoxy-ethyl)carbamoyloxy]-3-hydroxy-butan-1,4-yl}-12,13-dihydro-5,7-dioxo-6H-indolo[2,3-a]pyrrolo[3,4-c]carbazole]"
15,187,"COc1ccc(CCNC(=O)OC2Cn3c4ccccc4c4c5c(c6c7ccccc7n(c6c43)CC2O)C(=O)NC5=O)cc1OC (centres unmarked) [Cpd 84, 12,13-(2-{[2-(3,4-dimethoxy-phenyl)ethyl]carbamoyloxy}-3-hydroxy-butan-1,4-yl)-12,13-dihydro-5,7-dioxo-6H-indolo[2,3-a]pyrrolo[3,4-c]carbazole]"
16,14,"CC(C)NC(=O)OC1Cn2c3ccccc3c3c4c(c5c6ccccc6n(c5c32)CC1O)C(=O)NC4=O (centres unmarked) [Cpd 85, 12,13-[2-(prop-2-yl-carbamoyloxy)-3-hydroxy-butan-1,4-yl]-12,13-dihydro-5,7-dioxo-6H-indolo[2,3-a]pyrrolo[3,4-c]carbazole]"
17,33,"Cc1ccc(CNC(=O)OC2Cn3c4ccccc4c4c5c(c6c7ccccc7n(c6c43)CC2O)C(=O)NC5=O)o1 (centres unmarked) [Cpd 86, 12,13-(2-{[(5-methyl-furan-2-yl)methyl]carbamoyloxy}-3-hydroxy-butan-1,4-yl)-12,13-dihydro-5,7-dioxo-6H-indolo[2,3-a]pyrrolo[3,4-c]carbazole]"
18,169,"COc1ccc2[nH]cc(CCNC(=O)OC3Cn4c5ccccc5c5c6c(c7c8ccccc8n(c7c54)CC3O)C(=O)NC6=O)c2c1 (centres unmarked) [Cpd 87, 12,13-(2-{[2-(5-methoxy-1H-indol-3-yl)ethyl]carbamoyloxy}-3-hydroxy-butan-1,4-yl)-12,13-dihydro-5,7-dioxo-6H-indolo[2,3-a]pyrrolo[3,4-c]carbazole]"
19,113,"O=C(NCCCN1CCOCC1)OC1Cn2c3ccccc3c3c4c(c5c6ccccc6n(c5c32)CC1O)C(=O)NC4=O (centres unmarked) [Cpd 88, 12,13-{2-[(3-morpholin-4-yl-prop-1-yl)carbamoyloxy]-3-hydroxy-butan-1,4-yl}-12,13-dihydro-5,7-dioxo-6H-indolo[2,3-a]pyrrolo[3,4-c]carbazole]"
20,27,"O=C(NCc1ccncc1)OC1Cn2c3ccccc3c3c4c(c5c6ccccc6n(c5c32)CC1O)C(=O)NC4=O (centres unmarked) [Cpd 89, 12,13-{2-[(pyridin-4-yl-methyl)carbamoyloxy]-3-hydroxy-butan-1,4-yl}-12,13-dihydro-5,7-dioxo-6H-indolo[2,3-a]pyrrolo[3,4-c]carbazole]"
21,144,"CN1CCN(CCCNC(=O)OC2Cn3c4ccccc4c4c5c(c6c7ccccc7n(c6c43)CC2O)C(=O)NC5=O)CC1 (centres unmarked) [Cpd 90, 12,13-(2-{[3-(4-methyl-piperazin-1-yl)prop-1-yl]carbamoyloxy}-3-hydroxy-butan-1,4-yl)-12,13-dihydro-5,7-dioxo-6H-indolo[2,3-a]pyrrolo[3,4-c]carbazole]"
22,44,"O=C(NCCCn1ccnc1)OC1Cn2c3ccccc3c3c4c(c5c6ccccc6n(c5c32)CC1O)C(=O)NC4=O (centres unmarked) [Cpd 91, 12,13-{2-[(3-imidazol-1-yl-prop-1-yl)carbamoyloxy]-3-hydroxy-butan-1,4-yl}-12,13-dihydro-5,7-dioxo-6H-indolo[2,3-a]pyrrolo[3,4-c]carbazole]"
23,97,"O=C(NCCN1CCCC1)OC1Cn2c3ccccc3c3c4c(c5c6ccccc6n(c5c32)CC1O)C(=O)NC4=O (centres unmarked) [Cpd 92, 12,13-{2-[(2-pyrrolidin-1-yl-ethyl)carbamoyloxy]-3-hydroxy-butan-1,4-yl}-12,13-dihydro-5,7-dioxo-6H-indolo[2,3-a]pyrrolo[3,4-c]carbazole]"
24,65,"CN(C)c1ccc(CNC(=O)OC2Cn3c4ccccc4c4c5c(c6c7ccccc7n(c6c43)CC2O)C(=O)NC5=O)cc1 (centres unmarked) [Cpd 93, 12,13-{2-[(4-dimethylamino-benzyl)carbamoyloxy]-3-hydroxy-butan-1,4-yl}-12,13-dihydro-5,7-dioxo-6H-indolo[2,3-a]pyrrolo[3,4-c]carbazole]"
25,516,O=C1NC(=O)c2c1c1c3ccccc3n3c1c1c2c2ccccc2n1CC(OC(=O)N1CCN(CCN2CCOCC2)CC1)C(O)C3 (centres unmarked) [Cpd 94]
26,159,"O=C1NC(=O)c2c1c1c3ccccc3n3c1c1c2c2ccccc2n1CC(OC(=O)N1CCN(C(=O)CN2CCCC2)CC1)C(O)C3 (centres unmarked) [Cpd 95, 12,13-[2-({4-[(pyrrolidin-1-yl-methyl)carbonyl]piperazin-1-yl}carbonyloxy)-3-hydroxy-butan-1,4-yl]-12,13-dihydro-5,7-dioxo-6H-indolo[2,3-a]pyrrolo[3,4-c]carbazole]"
